Measured values as given in patent US5266594A, “Inhibitors of nitric oxide synthase and use thereof to prevent glutamate neurotoxicity” (priority 1992, dated 1993).
“Also recorded” adds a separate entry of the source. Like-named read-outs stand apart in the source and are kept apart here.

Tests used:
[1] = tested on: macrophage NOS (activated macrophage homogenates); test: inhibition of NOS activity in activated macrophage homogenates in vitro; assay type: biochemical
Source text: Inhibitors of NOS are compounds which compete for the substrate binding site of NOS or other sites on the enzyme, and include both reversible and irreversible inhibitors. The present invention contemplates the use of any physiologically acceptable inhibitor which inhibits NOS activity. The effectiveness of a compound, and its relative potency as an NOS inhibitor, can be tested and routinely determined by measuring inhibition of NOS activity by monitoring the conversion of arginine to citrulline by NOS in, for example, cerebellar homogenates. A reduction in citrulline formation indicates inhibitory activity of the compound. The percent reduction in citrulline formation, compared to the amount of citrulline formed in the absence of the compound being tested, indicates the potency of the compound as an NOS inhibitor.
NOS activity was measured by monitoring the conversion of [^3 H]arginine to [^3 H]citrulline as described by Bredt and Snyder (Proc. Natl. Acad. Sci USA (1990) 87682-685). Briefly, enzyme assays contained 25 μl of soluble tissue, 50 μl of […] [^3 H]arginine and 1 mM NADPH, and 25 μl of 3 mM CaCl2. After a 15 minute incubation at room temperature, the assays were terminated with 3 ml of 20 mM Hepes (pH 5.5) with 2 mM EDTA, and were applied to 0.5 ml columns of Dowex AG50WX8 (Na^+ form). [^3 H]citrulline was quantified by liquid scintillation spectroscopy of the 3 ml flow-through.
Accordingly, the effects of 2, 4 and 24 hours of preincubations of cerebellar supernatants (FIG. 2A) and activated macrophage homogenates (FIG. 2B) with NO2 Arg were examined. The preincubation was conducted at 4° C. since NOS is unstable at higher temperature for long periods of time. Enzymatic incubation was conducted for only 5 minutes to minimize any reaction of the inhibitor with the enzyme in the course of the incubation procedure.
Macrophages were activated as described by Tayeh and Marletta (J. Biol. Chem. (1989) 264:19654-19658) with 3.5 ng/ml LPS from E. coli and 5 units/ml recombinant murine γ-interferon for 24 hours at 37° C. Cells were homogenized in 20 mM Hepes (pH 7.4).

[2] = tested on: brain NOS; test: brain NOS activity in cerebellar homogenates after i.p. administration; assay type: in vivo, rat (Sprague-Dawley)
Experimental: Adult male rats (Sprague-Dawley, 3 per group) were injected intraperitoneally (i.p.) twice daily with 5 mg/kg or 50 mg/kg of NO2 Arg, MeArg, arginine or vehicle twice a day for four consecutive days. The animals were sacrificed by decapitation 14 hours following the last injection.
Cerebellar homogenates were used to determine NOS activity.

[3] = tested on: NOS protein; test: Western blot of NOS protein in brain extracts after i.p. administration; assay type: in vivo, rat; conditions: i.p. administration of 5 and 50 mg/kg
Experimental: To determine whether NO2 Arg administration alters levels of NOS protein, Western blot analysis of brain extracts were performed following the i.p. administration of both 5 and 50 mg/kg of NO2 Arg. Soluble cerebellar homogenates (100 μg) were separated on a 7.5% SDS-polyacrylamide gel and transferred to nitrocellulose. Lanes were incubated overnight with affinity purified NOS antibody (1:2500) at room temperature, and bands were visualized with an alkaline phosphatase linked secondary antibody. […] Therefore, the loss of NOS activity following peripheral administration of NO2 Arg is not attributed to inhibition of the synthesis of enzyme protein.

[4] = tested on: cortical cell cultures; test: cells; assay type: cell-based, rat; conditions: for EC50: cortical cultures
Experimental: Primary dissociated cell cultures were prepared from fetal rats (13-to 14-day gestation for cortex and caudate-putamen cultures and 19- to 20-day gestation for hippocampal cultures). The tissue of interest was dissected, incubated for 15 minutes in 0.027% trypsin in Brooks-Logan solution (5% phosphate-buffered saline/0.04M sucrose/10 mM Hepes/0.03M glucose, pH 7.4), and then transferred to modified Eagle's medium (MEM) 10% horse serum/10% fetal bovine serum/2 mM glutamine for trituration. Dissociated cells were plated at a density of 3-4×10^5 cells per well in polyornithine-coated 15-mm multiwell plates. After 4 days the cells were treated with 10 μg of 5-fluoro-2'-deoxyuridine to prevent proliferations of noneuronal cells. Cells were maintained in MEM/5% horse serum/2 mM glutamine in 8% CO2 /humidified atmosphere at 37° C. The medium was changed twice weekly. Mature neurons (3-4 weeks) were used.
Cells were exposed to excitatory amino acids according to the method of Koh and Choi (J. Neurosci. (1988) 8:2153-2163). Before exposure, the cells were washed three times with Tris-buffered control salt solution (CSS), containing 120 mM NaCl/5.4 mM KCl/1.8 mM CaCl2 /25 mM Tris hydrochloride, pH 7.4 at room temperature/15 mM glucose. Brief exposures to glutamate, NMDA (plus 10 μM glycine), quisqualate, and sodium nitroprusside (SNP) were performed for 5 minutes in CSS. The exposure solution was then washed away and replaced by MEM with 21 mM glucose; then the cells were placed in an incubator for 20-24 hour. Long exposures to kainate were performed in MEM/21 mM glucose for 20-24 hour in the incubator. After exposure to the excitatory amino acids, the medium was replaced by CSS/0.4% trypan blue, which stains nonviable cells. Two to four photographs (10-20×) were made of each well, and viable versus nonviable cells were counted. The cytotoxicity data represent 6-24 separate wells assayed per data point, with ≈500-1500 cells counted per well. Neuronal cell injury was also assessed by measuring the release of lactate dehydrogenase by damaged or destroyed cells into the extracellular fluid following drug exposure.
Before initiating cytotoxicity experiments with NOS inhibitors, the potency of NMDA applied for 5 minutes in inducing cell death was evaluated by examining exclusion of 0.4% trypan blue by viable cells or measuring lactate dehydrogenase released by damaged or destroyed cells into the extracellular fluid.
To examine the role of NO in other forms of glutamate neurotoxicity, the effects of NO2 Arg cytotoxicity induced by quisqualate, kainate, and NMDA were compared. […] Data are means ±SEM (n=6-24). Cell death was determined by 0.4% trypan blue exclusion by viable cells.

[5] = biological target: NOS; conditions: cited from earlier work

In the case of N=C(NCCC[C@H](N)C(=O)O)N[N+](=O)[O-] [NO2 Arg, L-N^ω -nitroarginine], the “potency in inhibiting the macrophage enzyme compared to the cerebellar enzyme” value ([1]; 24 hours of incubation) is reported as “about 7%”, the “enhancement of potency after preincubation” value ([1]; preincubation with the enzyme, 24 hours, FIG. 2B) is reported as “only a minimal enhancement of potency” and the “potency as NOS inhibitor relative to cerebellar preparations” value ([1]; supernatant preparations of activated macrophage cultures, FIG. 2B) is reported as “less potent inhibitor of NOS than in cerebellar preparations”. For the same molecule, the “inhibition of brain NOS” value ([2]; 5 mg/kg i.p. twice daily, four consecutive days, 14 hours after last injection) was “about 50%”, the “inhibition of enzyme activity in the brain after peripheral administration” value ([2]; 5 mg/kg, peripheral administration) was “markedly inhibits enzyme activity in the brain” and the “inhibition of brain NOS enzyme activity” value ([2]; 50 mg/kg i.p. twice daily, four consecutive days, 14 hours after last injection) was 95%. The “inhibition of NOS activity, repeated administration for 7 days versus 4 days” value ([2]; 7 days) was “no greater inhibition of NOS activity than 4 days of treatment”, the “nature of inhibition of NOS in vivo” value ([2]; FIG. 3, before and after dialysis) was “irreversible inhibition” and the “effect of dialysis on enzyme activity” value ([2]; crude supernatant from treated animals dialyzed for 24 hours) was “only slightly increases enzyme activity”. For the same molecule, the “time for which brain NOS activity does not return to normal levels” value ([2]; following 90% inhibition with 50 mg/kg) was “at least 5 days”, the “reduction of enzyme activity” value ([2]; single injection of 50 mg/kg) was 50% and the “alterations in NOS protein” value [3] was “No alterations in NOS protein were observed”. For the same molecule, the “prevention of neurotoxicity, in words” value [4] was “prevent neurotoxicity in proportion to their relative potencies as NOS inhibitors”, the “Cell death, % ± SEM (kainate + NO2 Arg)” value ([4]; 100 μM kainate +500 μM NO2 Arg) was 87.0 ± 3.2% and the “Cell death, % ± SEM (NMDA + NO2 Arg)” value ([4]; 300 μM NMDA + 10 μM glycine +100 μM NO2 Arg) was 17.7 ± 3.0%. For the same molecule, the “Cell death, % ± SEM (NMDA + NO2 Arg + L-Arg)” value ([4]; 300 μM NMDA + 10 μM glycine +100 μM NO2 Arg + 1mM L-Arg) was 63.4 ± 5.5%, the “effect on NMDA cytotoxicity (photomicrographs, FIG. 4)” value ([4]; 300 μM NMDA plus 10 μM glycine plus 100 NO2 Arg) was “inhibition of NMDA cytotoxicity” and the “Cell death, % ± SEM (glutamate + NO2 Arg + L-Arg)” value ([4]; 500 μM glutamate +100 μM NO2 Arg + 1 Mm L-Arg) was 48.2 ± 3.2%. For the same molecule, the “Cell death, % ± SEM (glutamate + NO2 Arg)” value ([4]; 500 μM glutamate +100 μN NO2 Arg) was 28.9 ± 6.0%, the “Cell death, % ± SEM (quisqualate + NO2 Arg)” value ([4]; 500 μM quisqualate +500 μM NO2 Arg) was 51.1 ± 2.4% and the “Cell death, % ± SEM (quisqualate + NO2 Arg + L-Arg)” value ([4]; 500 μM quisqualate +500 μM NO2 Arg + mM L-Arg) was 66.6 ± 5.3%. For the same molecule, the inhibition at 100 µM ([4]; Rattus norvegicus, 100 μM NO2 Arg applied simultaneously with NMDA, read-out: reduction of NMDA-induced cell death) was 70%, the EC50 ([4]; Rattus norvegicus, NMDA and related excitatory amino acids, read-out: EC50 for preventing neurotoxicity elicited by N-methyl-D-aspartate) was 20 µM and the EC50 ([4]; Rattus norvegicus, NMDA, read-out: concentration giving 50% prevention of NMDA-induced cell death) was roughly 20 µM. The “protection against kainate-induced cell death” value ([4]; kainate) was “no protection against kainate-induced cell death”, the “protection against quisqualate-induced cell death” value ([4]; quisqualate) was “A portion of cell death elicited by quisqualate is prevented; also recorded: higher concentrations of NO2 Arg are required than with NMDA toxicity” and the Ki ([5]; Dwyer et al. (1991), read-out: Ki, inhibition of NOS activity of purified enzyme preparations) was 0.2 µM. The “mode of inhibition of NOS” value ([5]; Moore (1990)) was “competitive inhibitor of NOS”.
